Data taken from patent US8580795B2, “Heterocyclic compounds as phosphodiesterase inhibitors” (Orchid Chemicals & Pharmaceuticals Limited, priority 2009, dated 2013).

What was measured:
[1] = target: human PDE4B enzyme (PDE4B2) (Homo sapiens, UniProt Q07343); experiment: Phosphodiesterase 4 screening assay (SPA, [3H]-cAMP); assay type: biochemical; settings: 100 nM compound; 0.5 μM cAMP
Method: Phosphodiesterase 4 Screening Assay:
PDE4 (Phosphodiesterase type IV) enzymes convert cyclic AMP (cAMP) into AMP. The assay is performed to determine the effect of test compounds on the inhibition of purified human PDE4B enzyme.
The assay involves the detection of the Tritiated AMP (product) using SPA beads known as yittrium silicate. The linear AMP bind preferentially to SPA yittrium silicate beads compared to cyclic nucleotides in the presence of zinc sulphate. The binding of the radiolabelled product to the bead brings the isotope into close proximity to allow radiation from the tritium to excite the scintillant within the bead to emit light. The unbound radiolabel is not close enough to allow this energy transfer and the light emitted due to the binding of tritiated AMP is detected as cpm (counts per minute).
PDE Activity (SPA Based Assay Protocol):
PDE4B activity was inhibited by the compounds according to the invention in a modified SPA (scintillation proximity assay) test, supplied by GE Healthcare Life Sciences (see procedural instructions “Phosphodiesterase [^3H]-cAMP SPA enzyme assay, code TRKQ 7090”), carried out in 96-well microtitre plates. The test volume is 100 μL and contains 50 mM Tris buffer (pH 7.4), 8.3 mM Mg^2+, in the presence of inhibitor or test compound, and containing PDE4B2 enzyme (sufficient to ensure that 10-20% of the cAMP is converted, under the said experimental conditions). […] After a pre-incubation of 5 minutes at 37° C., the reaction is started by adding the substrate (cAMP; 0.5 μM cAMP, including about 50,000 cpm of [^3H]-cAMP) and the assays are incubated for a further 10 minutes; after that, they are stopped by adding SPA beads containing 18 mM ZnSO4 (50 μl). After the beads have been sedimented (>30 minutes), the microtitre plates are analyzed in a Microplate luminescence detection device (TopCount* NXT; PerkinElmer Life Sciences). Where, the signal in the absence of enzyme is defined as the background. 100% activity was defined as the signal detected in the presence of enzyme and DMSO with the background subtracted. The corresponding IC50 values of the compounds for the inhibition of PDE4B2 activity are determined from the concentration-effect curves by means of non-linear regression fit of the standard 4-parameter/multiple binding sites equation from a eight- to ten-point titration. (Catherine B. et al. Anal. Biochem., 1999, 275(2), pp. 148-155, David M. E. Biochem. Pharmacol., 1999, 57, pp. 965-973)

[2] = tested on: TNF-α; experiment: LPS induced sepsis for measurement of TNF-α inhibition in mice; assay type: in vivo, Female Swiss albino mice; settings: 10 mg/kg oral, 30 min before LPS i.p., serum 90 min after LPS
Method: LPS Induced Sepsis for Measurement of TNF-α Inhibition in Mice:
The LPS induced sepsis model in mice was performed as described by Les sekut et al (J Lab Clin Med 1994; 124, 813-20). Female Swiss albino mice were selected and the body weights were equivalent within each group. The mice were fasted for 20 h with free access to water. The mice were dosed orally with the test compound suspended in vehicle containing 0.5% Tween 80 in 0.25% Carboxy-methylcellulose sodium salt. The control mice were administered the vehicle alone. After 30 minutes of oral dosing, mice were injected with 500 μg of Lipopolysaccharide (Escherichia coli, LPS: B4 from Sigma) in phosphate buffer saline solution into the intraperitoneal cavity of the mice. After 90 minutes of LPS administration mice were bled via retro-orbital sinus puncture. Blood samples were stored overnight at 4° C. Serum samples were collected by centrifuging the samples at 4000 rpm for 15 minutes at 4° C. Immediately the serum samples were analysed for TNF-α levels using commercially available mouse TNF-α ELISA kit (Amersham Biosciences) and assay was performed by the manufacturer instruction.

[3] = tested on: TNF-α; experiment: In vitro measurement of TNF-α production in LPS-stimulated human PBMC (ELISA); assay type: cell-based; settings: 100 nM compound, LPS 1 μg/mL, 18 h, NA: Not active
Method: Biological Activity In Vitro Measurement of Tumor Necrosis Factor Alpha (TNF-α):
This assay determines the effect of test compounds on the production of TNF-α in human Peripheral Blood Mononuclear Cells (PBMC). Compounds were tested for their ability to inhibit the activity of TNF α in human PBMC. PBMC were isolated from blood (of healthy volunteers) using BD Vacutainer CPT™ (Cell preparation tube, BD Bio Science) and suspended in RPMI (Rosewell park memorial institute) medium (Physiol. Res. 2003, 52, 593-598). The test compounds were pre-incubated with PBMC (0.5 million/incubation well) for 15 minutes at 37° C. and then stimulated with Lipopolysaccharide (Escherichia coli: B4; 1 μg/mL) for 18 h at 37° C. in 5% CO2. The levels of TNF-α in the cell culture medium were estimated using enzyme-linked immunosorbent assay performed in a 96 well format as per the procedure of the manufacturer (Cayman Chemical, Ann Arbor, USA).

[4] = tested on: LPS induced neutrophilia; experiment: LPS induced neutrophilia model for asthma and COPD; assay type: in vivo, Male Sprague Dawley rats; settings: rats, BAL 6 h after LPS exposure
Method: LPS Induced Neutrophilia Model for Asthma and COPD:
LPS induced neutrophilia in Sprague Dawley rats was performed using the protocol described in Pulm Pharmacol & Ther 17,133-140, 2004. Male Sprague. Dawley rats were acclimatized to laboratory conditions five to seven days prior to the start of the experiment. They were randomly distributed to various groups based on body weight. Except normal group all the animals were exposed to LPS 100 μg/ml for 40 minutes. The rats were dosed with the test compound suspended in the vehicle containing 0.25% carboxymethylcellulose before half an hour of LPS exposure. BAL was performed 6 h after LPS exposure, total cell count and DLC was done and compared with control and the standard drug.

Sequence of human PDE4B enzyme (PDE4B2) (Q07343 1-564 isoform Q07343-2): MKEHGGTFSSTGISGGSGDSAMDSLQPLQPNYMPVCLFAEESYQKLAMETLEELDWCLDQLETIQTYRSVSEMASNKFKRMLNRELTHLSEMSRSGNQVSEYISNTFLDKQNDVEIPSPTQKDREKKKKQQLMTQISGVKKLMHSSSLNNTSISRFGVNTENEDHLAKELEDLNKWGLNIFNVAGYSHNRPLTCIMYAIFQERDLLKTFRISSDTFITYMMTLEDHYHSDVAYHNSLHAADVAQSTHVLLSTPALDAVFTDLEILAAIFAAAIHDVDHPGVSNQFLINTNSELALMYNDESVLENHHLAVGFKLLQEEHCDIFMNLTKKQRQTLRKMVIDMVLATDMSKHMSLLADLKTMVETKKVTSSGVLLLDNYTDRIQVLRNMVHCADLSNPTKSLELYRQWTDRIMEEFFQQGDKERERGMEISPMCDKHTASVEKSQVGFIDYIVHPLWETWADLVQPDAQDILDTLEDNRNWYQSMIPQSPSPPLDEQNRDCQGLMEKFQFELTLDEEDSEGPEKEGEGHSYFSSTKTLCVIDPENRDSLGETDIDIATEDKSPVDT

Row | SMILES | inhibition at 0.1 µM [3] | also measured
1 | COc1ccc(-c2nc(CCC(=O)Nc3c(Cl)cncc3Cl)cs2)c2c1oc1ccccc12 [Example 11, N-(3,5-Dichloropyridin-4-yl)-3-(2-(4-methoxydibenzo[b,d]furan-1-yl)-1,3-thiazol-4-yl)propanamide] | – | inhibition at 0.1 µM [1]: 32.8%; TNF-α Inhibition (%) [2]: 46.70%
2 | COc1ccc(-c2nc(C(=O)Nc3c(Cl)cncc3Cl)cs2)c2c1oc1ccccc12 [Example 13, N-(3,5-Dichloropyridin-4-yl)-2-(4-methoxydibenzo[b,d]furan-1-yl)-1,3-thiazole-4-carboxamide] | 26.1% | inhibition at 0.1 µM [1]: 70.3%; TNF-α Inhibition (%) [2]: 37.83%
3 | O=C(Nc1c(Cl)cncc1Cl)c1csc(-c2ccc(OC(F)F)c3oc4ccccc4c23)n1 [Example 14, N-(3,5-dichloropyridin-4-yl)-2-(4-(difluoromethoxy)dibenzo[b,d]furan-1-yl)-1,3-thiazole-4-carboxamide] | 14.5% | inhibition at 0.1 µM [1]: 42.3%; TNF-α Inhibition (%) [2]: 40.67%
4 | COc1ccc(-c2nc(C(N)=O)cs2)c2c1oc1ccccc12 [Example 25, 2-(4-Methoxydibenzo[b,d]furan-1-yl)-1,3-thiazole-4-carboxamide] | 35.5% | inhibition at 0.1 µM [1]: 15.4%
5 | COc1ccc(-c2nc(C(=O)NN3CCOCC3)cs2)c2c1oc1ccccc12 [Example 30, 2-(4-Methoxydibenzo[b,d]furan-1-yl)-N-morpholino-1,3-thiazole-4-carboxamide] | 21.9% | –
6 | COc1ccc(-c2nc(C(=O)NC3CCC(O)CC3)cs2)c2c1oc1ccccc12 (centres unmarked) [Example 31, N-(4-Hydroxycyclohexyl)-2-(4-methoxydibenzo[b,d]furan-1-yl)-1,3-thiazole-4-carboxamide] | 63.1% | –
7 | CS(=O)(=O)Nc1ccc2oc3c(OC(F)F)ccc(-c4nc(C(=O)Nc5c(Cl)cncc5Cl)cs4)c3c2c1 [Example 34] | 25.1% | –
8 | Cc1sc(-c2ccc(OC(F)F)c3oc4ccc(NS(C)(=O)=O)cc4c23)nc1C(=O)NC1CCC(O)CC1 (centres unmarked) [Example 35, 2-(4-(Difluoromethoxy)-8-(methylsulfonamido)dibenzo[b,d]furan-1-yl)-N-(4-hydroxycyclohexyl)-5-methyl-1,3thiazole-4-carboxamide] | 61.8% | LPS induced neutrophilia % inhibition ([4]; Dose 10 mg/kg): 19.29%
9 | CC(=O)Nc1ccc2oc3c(OC(F)F)ccc(-c4nc(C(=O)O)cs4)c3c2c1 [Example 36, 2-[8-(Acetylamino)-4-(difluoromethoxy)dibenzo[b,d]furan-1-yl]-1,3-thiazole-4-carboxylic acid] | 15.5% | –
10 | CONC(=O)c1nc(-c2ccc(OC(F)F)c3oc4ccc(NS(C)(=O)=O)cc4c23)sc1C [Example 37, 2-(4-(Difluoromethoxy)-8-(methylsulfonamido)dibenzo[b,d]furan-1-yl)-N-methoxy-5-methyl-1,3-thiazole-4-carboxamide] | 35.4% | –
11 | CC(=O)Nc1ccc2oc3c(OC(F)F)ccc(-c4nc(C(=O)NC5CCC(O)CC5)cs4)c3c2c1 (centres unmarked) [Example 38, 2-(8-Acetamido-4-(difluoromethoxy)dibenzo[b,d]furan-1-yl)-N-(4-hydroxycyclohexyl)-1,3-thiazole-4-carboxamide] | 83.4% | LPS induced neutrophilia % inhibition ([4]; Dose 5 mg/kg): 35.68%
12 | O=C(NC1CCC(O)CC1)c1csc(-c2ccc(OC(F)F)c3oc4ccccc4c23)n1 (centres unmarked) [Example 39, 2-((4-Difluoromethoxy)dibenzo[b,d]furan-1-yl)-N-(4-hydroxycyclohexyl)-1,3-thiazole-4-carboxamide] | 77.7% | LPS induced neutrophilia % inhibition ([4]; Dose 10 mg/kg): 57.98%
13 | O=C(NCC(F)(F)F)c1csc(-c2ccc(OC(F)F)c3oc4ccccc4c23)n1 [Example 40, 2-((4-Difluoromethoxy)dibenzo[b,d]furan-1-yl)-N-(2,2,2-trifluoroethyl)-1,3-thiazole-4-carboxamide] | 26.7% | –
14 | CONC(=O)c1csc(-c2ccc(OC(F)F)c3oc4ccccc4c23)n1 [Example 42, 2-((4-Difluoromethoxy)dibenzo[b,d]furan-1-yl)-N-methoxy-1,3-thiazole-4-carboxamide] | 8.5% | –
15 | O=C(NC1CCC(O)CC1)c1csc(-c2ccc(OC(F)F)c3oc4ccc(C(F)(F)F)cc4c23)n1 (centres unmarked) [Example 44, 2-(4-(Difluoromethoxy)-8-(trifluoromethyl)dibenzo[b,d]furan-1-yl)-N-(4-hydroxycyclohexyl)-1,3-thiazole-4-carboxamide] | 17.2% | –
16 | CS(=O)(=O)Nc1ccc2oc3c(OC(F)F)ccc(-c4nc(C(=O)NC5CCC(O)CC5)cs4)c3c2c1 (centres unmarked) [Example 46, 2-(4-(Difluoromethoxy)-(methylsulfonamido)dibenzo[b,d]furan-1-yl)-N-(4-hydroxycyclohexyl)-1,3-thiazole-4-carboxamide] | 78.6% | –
17 | CS(=O)(=O)Nc1ccc2oc3c(OC(F)F)ccc(-c4nc(C(=O)N[C@H]5CC[C@H](O)CC5)co4)c3c2c1 [Example 50, 2-(4-(Difluoromethoxy)-8-(methylsulfonamido)dibenzo[b,d]furan-1-yl)-N-(4-hydroxycyclohexyl)-1,3-oxazole-4-carboxamide] | – | TNF-α Inhibition (%) [2]: 13.15%
